Patent US20180155757A1, “IDENTIFICATION OF BACTERIA THAT ARE RESISTANT TO CARBAPENEMS BY MEMBRANE IMPERVIOUSNESS” (BIOMÉRIEUX, priority 2015, published 2018)
Where two headings read alike, the source gives them in different places.

Assays:
Assay in all cases: Etest MIC of indicator carbapenems on MH II agar without/with PMBN
Assay type in all cases: cell-based
[1] = test system: K. pneumoniae 1103183 (NDM producer)
Protocol: (§1) The determinations of antibiotic MIC were carried out on solid culture media with the Etest® method. To do this, Etest® strips (bioMérieux, France) were used: • Etest® Imipenem IM 32, and • Etest® Ertapenem ETP 32, and also solid culture media, differing from one another by virtue of their non-inhibitory concentrations of PMBN.
(§2) These solid culture media are prepared in Petri dishes (0=145 mm; V=50 ml) on a base of MH II Agar (Becton Dickinson®, United States), more or less supplemented with PMBN. The PMBN concentrations range from 0 up to concentrations equivalent to one fifth of the MIC of PMBN (⅕ MICPMBN).
(§3) Using a swab and the Retro C80™ rota-plater (bioMérieux, France), the culture media were inoculated with the bacteria, originating from an inoculum of 0.5 McFarland, prepared in 0.85% NaCl solution from colonies subcultured the day before on MH II agar.
(§4) The various Etest® strips are then deposited on the surface of the culture media. After 16 to 20 hours of incubation at 35° C., the MICS were read.
(§5) By way of indicator carbapenems according to the invention, in addition to imipenem (IM) and ertapenem (ETP), meropenem (MP) was also tested. Like the other two antibiotics, meropenem was used in the form of Etest® strips (Etest® Meropenem MP 32 from the company bioMérieux, France).
(§6) The methods used to prepare the new culture media and to carry out the antibiotic-sensitivity tests are identical to those described above.

E. coli SAB 108 (porin−) = conditions: Escherichia coli
Protocol: as §1, §2, §3, §4, §5, §6

[2] = test system: Enterobacter aerogenes EA 5 (porin−); conditions: Klebsiella aerogenes, E. aerogenes EA 5 (porin−)
Protocol: as §1, §2, §3, §4, §5, §6

[3] = test system: E. cloacae 1008080 (IMP producer); conditions: in µg/mL
Protocol: as §1, §2, §3, §4, §5, §6

[4] = test system: E. cloacae 1204051 (membrane impermeability)
Protocol: as §1, §2, §3, §4, §5, §6

[5] = test system: E. cloacae 1008074 (VIM producer)
Protocol: as §1, §2, §3, §4, §5, §6

[6] = test system: E. coli 1008078 (VIM producer)
Protocol: as §1, §2, §3, §4, §5, §6

[7] = test system: E. cloacae 1204053 (membrane impermeability)
Protocol: as §1, §2, §3, §4, §5, §6

E. coli SAB 100 (porin−) = conditions: Escherichia coli
Protocol: as §1, §2, §3, §4, §5, §6

[8] = test system: K. pneumoniae 1204039 (membrane impermeability)
Protocol: as §1, §2, §3, §4, §5, §6

[9] = test system: K. pneumoniae 1108003 (KPC-3 producer)
Protocol: as §1, §2, §3, §4, §5, §6

[10] = test system: K. pneumoniae 1204036 (membrane impermeability)
Protocol: as §1, §2, §3, §4, §5, §6

[11] = test system: E. cloacae 1109137 (OXA-48 producer)
Protocol: as §1, §2, §3, §4, §5, §6

[12] = test system: E. cloacae 1204058 (membrane impermeability); conditions: in µg/mL
Protocol: as §1, §2, §3, §4, §5, §6

[13] = test system: K. pneumoniae KP 63 (porin−); conditions: Klebsiella pneumoniae
Protocol: as §1, §2, §3, §4, §5, §6

[14] = test system: E. cloacae 1204056 (membrane impermeability)
Protocol: as §1, §2, §3, §4, §5, §6

[15] = test system: K. pneumoniae 1204035 (membrane impermeability); conditions: in µg/mL
Protocol: as §1, §2, §3, §4, §5, §6

[16] = test system: Enterobacter aerogenes EA 27 (porin−); conditions: Klebsiella aerogenes, E. aerogenes EA 27 (porin−), read-out: MIC
Protocol: as §1, §2, §3, §4, §5, §6

[17] = test system: E. cloacae 1204153 (membrane impermeability); conditions: in µg/mL
Protocol: as §1, §2, §3, §4, §5, §6

C[C@@H](O)[C@H]1C(=O)N2C(C(=O)O)=C(S[C@@H]3CN[C@H](C(=O)N(C)C)C3)[C@H](C)[C@H]12 [MP, meropenem]
MIC ([1]; [PMBN] 0, Table 4a): > 32 µg/mL | MIC ([1]; [PMBN] 100, Table 4a): > 32 µg/mL | MIC ([1]; [PMBN] 200, Table 4a): 24 µg/mL | MIC ([1]; [PMBN] 300, Table 4a): > 32 µg/mL | MIC (E. coli SAB 108 (porin−); [PMBN] 0): 2 µg/mL | MIC (E. coli SAB 108 (porin−); [PMBN] 50 μg/ml): 0.125 µg/mL | MIC (E. coli SAB 108 (porin−); [PMBN] 100 μg/ml): 0.125 µg/mL | MIC (E. coli SAB 108 (porin−); [PMBN] 150 μg/ml): 0.094 µg/mL | MIC (E. coli SAB 108 (porin−); [PMBN] 200 μg/ml): 0.094 µg/mL | MIC ([2]; [PMBN] 0, Table 4): 3 µg/mL | MIC ([2]; [PMBN] 50 μg/ml): 2 µg/mL | MIC ([2]; [PMBN] 100 μg/ml): 1.5 µg/mL | MIC ([2]; [PMBN] 150 μg/ml): 0.75 µg/mL | MIC ([2]; [PMBN] 200 μg/ml): 0.75 µg/mL | MIC ([3]; [PMBN] 0, Table 4a): 2 | MIC ([3]; [PMBN] 100, Table 4a): 8 | MIC ([3]; [PMBN] 200, Table 4a): 6 | MIC ([3]; [PMBN] 300, Table 4a): 4-6 | MIC ([4]; [PMBN] 0, Table 4a): 4 µg/mL | MIC ([4]; [PMBN] 100, Table 4a): 2 µg/mL | MIC ([4]; [PMBN] 200, Table 4a): 0.25 µg/mL | MIC ([4]; [PMBN] 300, Table 4a): 0.25 µg/mL | MIC ([5]; [PMBN] 0, Table 4a): 0.38 µg/mL | MIC ([5]; [PMBN] 100, Table 4a): 1.5 µg/mL | MIC ([5]; [PMBN] 200, Table 4a): 1 µg/mL | MIC ([5]; [PMBN] 300, Table 4a): 1.5 µg/mL | MIC ([6]; [PMBN] 0, Table 4a): 0.5 µg/mL | MIC ([6]; [PMBN] 100, Table 4a): 0.5 µg/mL | MIC ([6]; [PMBN] 200, Table 4a): 0.25 µg/mL | MIC ([6]; [PMBN] 300, Table 4a): 0.25 µg/mL | MIC ([7]; [PMBN] 0, Table 4a): 4 µg/mL | MIC ([7]; [PMBN] 100, Table 4a): 2 µg/mL | MIC ([7]; [PMBN] 200, Table 4a): 2 µg/mL | MIC ([7]; [PMBN] 300, Table 4a): 1.5 µg/mL | MIC (E. coli SAB 100 (porin−); [PMBN] 0): 0.125 µg/mL | MIC (E. coli SAB 100 (porin−); [PMBN] 50 μg/ml): 0.094 µg/mL | MIC (E. coli SAB 100 (porin−); [PMBN] 100 μg/ml): 0.047 µg/mL | MIC (E. coli SAB 100 (porin−); [PMBN] 150 μg/ml): 0.032 µg/mL | MIC (E. coli SAB 100 (porin−); [PMBN] 200 μg/ml): 0.032 µg/mL | MIC ([8]; [PMBN] 0, Table 4a): 0.75 µg/mL | MIC ([8]; [PMBN] 100, Table 4a): 0.5 µg/mL | MIC ([8]; [PMBN] 200, Table 4a): 0.38 µg/mL | MIC ([8]; [PMBN] 300, Table 4a): 0.38 µg/mL | MIC ([9]; [PMBN] 0, Table 4a): 6 µg/mL | MIC ([9]; [PMBN] 100, Table 4a): > 32 µg/mL | MIC ([9]; [PMBN] 200, Table 4a): > 32 µg/mL | MIC ([9]; [PMBN] 300, Table 4a): 4 µg/mL | MIC ([10]; [PMBN] 0, Table 4a): 32 µg/mL | MIC ([10]; [PMBN] 100, Table 4a): 16 µg/mL | MIC ([10]; [PMBN] 200, Table 4a): 6 µg/mL | MIC ([10]; [PMBN] 300, Table 4a): 4 µg/mL | MIC ([11]; [PMBN] 0, Table 4a): 3 µg/mL | MIC ([11]; [PMBN] 100, Table 4a): 3 µg/mL | MIC ([11]; [PMBN] 200, Table 4a): 1.5 µg/mL | MIC ([11]; [PMBN] 300, Table 4a): 2 µg/mL | MIC ([12]; [PMBN] 0, Table 4a): >32 | MIC ([12]; [PMBN] 100, Table 4a): 2 | MIC ([12]; [PMBN] 200, Table 4a): 0.75 | MIC ([12]; [PMBN] 300, Table 4a): 0.25 | MIC ([13]; [PMBN] 0): 0.25 µg/mL | MIC ([13]; [PMBN] 50 μg/ml): 0.25 µg/mL | MIC ([13]; [PMBN] 100 μg/ml): 0.094 µg/mL | MIC ([13]; [PMBN] 150 μg/ml): 0.064 µg/mL | MIC ([13]; [PMBN] 200 μg/ml): 0.023 µg/mL | MIC ([14]; [PMBN] 0, Table 4a): 12 µg/mL | MIC ([14]; [PMBN] 100, Table 4a): 2 µg/mL | MIC ([14]; [PMBN] 200, Table 4a): 1 µg/mL | MIC ([14]; [PMBN] 300, Table 4a): 0.75 µg/mL | MIC ([15]; [PMBN] 0, Table 4a): 8-12 | MIC ([15]; [PMBN] 100, Table 4a): 2 | MIC ([15]; [PMBN] 200, Table 4a): 1.5 | MIC ([15]; [PMBN] 300, Table 4a): 1.5 | MIC ([16]; [PMBN] 0, Table 4): 4 µg/mL | MIC ([16]; [PMBN] 50 μg/ml): 0.75 µg/mL | MIC ([16]; [PMBN] 100 μg/ml): 0.5 µg/mL | MIC ([16]; [PMBN] 150 μg/ml): 0.19 µg/mL | MIC ([16]; [PMBN] 200 μg/ml): 0.094 µg/mL | MIC ([17]; [PMBN] 0, Table 4a): 4 | MIC ([17]; [PMBN] 100, Table 4a): 0.75-1 | MIC ([17]; [PMBN] 200, Table 4a): 1 | MIC ([17]; [PMBN] 300, Table 4a): 0.75
